The values that follow come from US7598234B2, “Steroid derived antibiotics” (Brigham Young University, priority 1998, dated 2009).

The test system of assay [1] is E. coli (ATCC 10798). In words: MIC and MBC measurement with E. coli (ATCC 10798). It is filed as cell-based, Escherichia coli. The text has this: (§1) General: Microorganisms. Reference strains were purchased from the American Type Culture Collection (Rockville, Md.) or Bactrol disks from Difeo Laboratories (Detroit, Mich.). The following specific ATCC strains were used: 10798 Escherichia coli, 25922 Escherichia coli, 13883 Klebsiella pneumoniae, 27853 Pseudomonas aeruginosa, 14028 Salmonella typhimurium, 29212 Enterococcus faecalis, 25923 Staphylococcus aureus, 19615 Streptococcus pyogenes, and 90028 Candida albicans. Bacterial strains were maintained on Mueller-Hinton agar plates, and Candida albicans was maintained on Sabouraud Dextrose agar plates.
(§2) Tryptic soy broth (TSB) was made by dissolving 27.5 grams of tryptic soy broth without dextrose (DIFCO Laboratories) in 1 liter of deionized water and sterilizing at 121° C. for 15 minutes. Solid agar (TSA) plates were made by dissolving 6.4 grams of tryptic soy broth and 12 grams of agar (purified grade, Fischer Scientific) in 800 mL of deionized water and sterilizing at 121° C. for 20 minutes. Aliquots (20 mL) of the homogeneous solution were then poured in sterile plastic petri dishes (100×15 mm, Fisher Scientific). Solutions of compounds were made by dissolving the HCl salt of the respective compound into an appropriate amount of deionized and sterilized water followed by microfiltration.
(§3) Aliquots of 1 mL of the suspension were added to test tubes containing 1 mL TSB and incrementally varied concentrations of cholic acid derivatives and/or erythromycin or novobiocin. In the sensitization experiments, erythromycin or novobiocin were added 15 minutes later than the cholic acid derivatives. The samples were subjected to stationary incubation at 37° C. for 24 hours. Sample turbidity was determined by measuring absorption at 760 nm (HP 8453 UV-Visible Chemstation, Hewlett Packard). Additionally, an alliquot from each of the samples showing no measurable turbidity was subcultured on TSA plates (alliquots were diluted to provide fewer than 300 CFU). Colonies that grew on the subculture after overnight incubation were counted and the number of CFU/mL in the samples were calculated. The calculated values were compared to the number of CFU/mL in the original inoculum.

The subject of assay [2] is E. coli (ATCC 10798). In words: Sensitization to erythromycin (concentration lowering the MIC of erythromycin), E. coli (ATCC 10798). It is filed as cell-based, Escherichia coli. Conditions: for (a) Concentration required to lower the MIC of erythromycin from 70 to 1 μg/mL / (b) MBC with 1 μg/mL erythromycin / FIC values with erythromycin: Table 9, Escherichia coli (ATCC 10798). As for the experimental part:
(§4) Alternatively, “fractional inhibitory concentration (FIC)” is also useful for determination of synergy between the compounds of the invention, or the compounds in combination with known antibiotics. FICs can be performed by checkerboard titrations of compounds in one dimension of a microtiter plate, and of antibiotics in the other dimension, for example. The FIC is calculated by looking at the impact of one antibiotic on the MIC of the other and vice versa. […] Preferably, an FIC of less than 0.5 is obtained for synergism. As used herein, FIC can be determined as follows:
as §3
(§5) Ability to permeabilize outer membrane: Compounds 11, 106, and 108-114 (FIG. 1) were tested for antibiotic activity. They were also tested for the ability to permeabilize the outer membrane of Gram-negative bacteria, causing sensitization to hydrophobic antibiotics that cannot cross the outer membrane. The permeabilization of the outer membrane was measured using erythromycin and novobiocin.
(§6) The MICs of erythromycin and novobiocin against E. coli (ATCC 10798) at 70 and >500 μg/mL were measured.

Assay [3] concerns E. coli (ATCC 10798). In words: Sensitization to novobiocin (concentration lowering the MIC of novobiocin), E. coli (ATCC 10798). It is filed as cell-based, Escherichia coli. The conditions noted are these: Table 9; Escherichia coli (ATCC 10798). As for the experimental part:
as §4, §3, §5, §6

A further assay relates to E. coli (ATCC 25922). Put plainly: MIC and MBC measurement with E. coli (ATCC 25922). Conditions: Escherichia coli, ATCC25922, E. coli (ATCC 25922); starting MIC in sensitization tests; read-out: MIC of erythromycin alone. The format is cell-based, Escherichia coli.
Text: as §1, §2
as §3, with “inoculum. […]” for “inoculum.”

Assay [4] deals with Pseudomonas aeruginosa (ATCC 27853). Put plainly: MIC and MBC measurement with Pseudomonas aeruginosa (ATCC 27853). The conditions noted are these: P. aureginosa (ATCC 27853); starting MIC in sensitization tests. It is filed as cell-based.
Text: as §1, §2, §3

Where [5] appears, read: Table 9, Escherichia coli (ATCC 10798).

Broadly, the MBC is the smallest concentration meeting the test's criterion for killing. Read a high MBC as weaker bactericidal potency. For orientation: MIC means the lowest concentration that inhibits growth of the organism.

Structures are written as SMILES. In brackets after ≈: the same amount, converted by molar mass.

In the assay on E. coli (ATCC 10798) [1] (setting [5]), `C[C@H](CCCO)[C@H]1CC[C@H]2[C@@H]3[C@H](OCCCN)C[C@@H]4C[C@H](OCCCN)CC[C@]4(C)[C@H]3C[C@H](OCCCN)[C@]12C` [Compound 110] gave an MBC of 60 µg/mL (≈ 106 µM) and an MIC of 36 µg/mL (≈ 63.6 µM). For the same compound, in the assay with E. coli (ATCC 10798) [2], the “(a) Concentration required to lower the MIC of erythromycin from 70 to 1 μg/mL” value was found to be 2.0 µg/mL, the “(b) MBC with 1 μg/mL erythromycin” value came out at 50 µg/mL and the “FIC values with erythromycin” value is 0.070. Besides, in the assay with E. coli (ATCC 10798) [3], the “(d) Concentration required to lower the MIC of novobiocin from >500 to 1 μg/mL” value amounted to 4.0 µg/mL and the “FIC values with novobiocin” value came out at 0.11.
Turning to `COCCC[C@@H](C)[C@H]1CC[C@H]2[C@@H]3[C@H](OCCCN)C[C@@H]4C[C@H](OCCCN)CC[C@]4(C)[C@H]3C[C@H](OCCCN)[C@]12C` [Compound 111], in the assay on E. coli (ATCC 10798) [1] (setting [5]), the MBC is 33 µg/mL (≈ 56.9 µM) and the minimum inhibitory concentration (MIC) came out at 30 µg/mL (≈ 51.7 µM). Moreover, in the assay with E. coli (ATCC 10798) [2], the “(a) Concentration required to lower the MIC of erythromycin from 70 to 1 μg/mL” value amounted to 1.0 µg/mL, the “(b) MBC with 1 μg/mL erythromycin” value is 20 µg/mL and the “FIC values with erythromycin” value was found to be 0.048. In the assay on E. coli (ATCC 10798) [3], the “(d) Concentration required to lower the MIC of novobiocin from >500 to 1 μg/mL” value was 2.0 µg/mL and the “FIC values with novobiocin” value is 0.069.
In the assay on E. coli (ATCC 10798) [1] (setting [5]), `CCCCCCCCOCCC[C@@H](C)[C@H]1CC[C@H]2[C@@H]3[C@H](OCCCN)C[C@@H]4C[C@H](OCCCN)CC[C@]4(C)[C@H]3C[C@H](OCCCN)[C@]12C` [Compound 114] gave an MBC of 10 µg/mL (≈ 14.7 µM) and an MIC of 3.0 µg/mL (≈ 4.42 µM). In addition, in the assay with E. coli (ATCC 10798) [2], the “(a) Concentration required to lower the MIC of erythromycin from 70 to 1 μg/mL” value was 3.0 µg/mL, the “(b) MBC with 1 μg/mL erythromycin” value worked out at 3.0 µg/mL and the “FIC values with erythromycin” value was found to be 1.0.
In turn, `C[C@H](CCCOS(=O)(=O)O)[C@H]1CC[C@H]2[C@@H]3[C@H](OCCCN)C[C@@H]4C[C@H](OCCCN)CC[C@]4(C)[C@H]3C[C@H](OCCCN)[C@]12C` [Compound 132] returned an MIC against E. coli (ATCC 10798) [1] (E. coli (ATCC 10798)) of 60 µg/mL (≈ 92.9 µM). Also, the “concentration required to lower the MIC of erythromycin to 1 μg/mL” value in the assay with E. coli (ATCC 10798) [2] (E. coli (ATCC 10798)) is 4.0 µg/mL.
With `C[C@H](CCCN)[C@H]1CC[C@H]2[C@@H]3[C@H](OCCCN)C[C@@H]4C[C@H](OCCCN)CC[C@]4(C)[C@H]3C[C@H](OCCCN)[C@]12C` [Compound 135], in the assay with E. coli (ATCC 10798) [1] (FIG. 5, strain not named), the “MBC (in words)” value was “relatively high” and the “MIC (in words)” value is “relatively high”.
With `CC[C@H]1OC(=O)[C@H](C)[C@@H](O[C@H]2C[C@@](C)(OC)[C@@H](O)[C@H](C)O2)[C@H](C)[C@@H](O[C@@H]2O[C@H](C)C[C@H](N(C)C)[C@H]2O)[C@](C)(O)C[C@@H](C)C(=O)[C@H](C)[C@@H](O)[C@]1(C)O` [erythromycin, reference compound], the minimal inhibitory concentration (MIC) in the assay on E. coli (ATCC 25922) turned out to be 36 µg/mL. Besides, in assay [4], the “MIC of the antibiotic alone” value is 240 μg/mL to 5 μg/mL with P. aureginosa (ATCC 27853).
Regarding `CO[C@@H]1[C@@H](OC(N)=O)[C@@H](O)[C@H](Oc2ccc3c(O)c(NC(=O)c4ccc(O)c(CC=C(C)C)c4)c(=O)oc3c2C)OC1(C)C` [novobiocin, reference compound], the “MIC of the antibiotic alone” value in assay [4] was >500 μg/mL to 1 μg/mL with P. aureginosa (ATCC 27853).
